# According to US7030134B2, “Pyrazolopyridinyl pyridine and pyrimidine therapeutic compounds” (SmithKline Beecham Corporation, priority 2001, dated 2006):
# Where a name gives a salt, the structure may show the parent alone.
# Test system: not given
# Experiment: not given
# Details: not given
row,melting point,SMILES
1,167 to 169 °C,"COc1cc(NC2CCCC2)n2nc(-c3ccc(F)cc3)c(-c3ccnc(NC4CCCC4)n3)c2c1 [Example 45, N-Cyclopentyl-3-[2-(cyclopentylamino)-4-pyrimidinyl]-2-(4-fluorophenyl)-5-methoxypyrazolo[1,5-a]pyridin-7-amine]"

# Test system: HSV-1
# Experiment: HSV-1 replication in infected Vero 76 cells, DNA hybridization capture assay
# Assay type: cell-based, herpes simplex virus 1
# Details: Human alphaherpesvirus 1, Vero 76
# Procedure: Vero 76 cells were maintained in MEM with Earle's salts, L-glutamine, 8% FBS (Hyclone, A-1111-L) and 100 units/mL Penicillin-100 μg/mL Streptomycin. For assay conditions, FBS was reduced to 2%. Cells are seeded into 96-well tissue culture plates at a density of 5×10^4 cells/well after being incubated for 45 min at 37° C. in the presence of HSV-1 or HSV-2 (MOI=0.001). Test compounds are added to the wells and the plates are incubated at 37° C. for 40–48 hours. Cell lysates are prepared as follows: media was removed and replaced with 150 μL/well 0.2 N NaOH with 1% Igepal CA 630 or NP-40. Plates were incubated up to 14 days at room temperature in a humidified chamber to prevent evaporation.
# For the detection probe, a gel-purified, digoxigenin-labeled, […] PCR fragment of the HSV UL-15 sequence was utilized. PCR conditions included 0.5 μM primers, 180 μM dTTP, 20 μM dUTP-digoxigenin (Boehringer Mannheim 1558706), 200 μM each of dATP, dCTP, and dGTP, 1×PCR Buffer II (Perkin Elmer), 2.5 mM MgCl2, 0.025 units/μL of AmpliTaq Gold polymerase (Perkin Elmer), and 5 ng of gel-purified HSV DNA per 100 μL. Extension conditions were 10 min at 95° C., followed by 30 cycles of 95° C. for 1 min, 55° C. for 30 sec, and 72° C. for 2 min. The amplification was completed with a 10-min incubation at 72° C. Primers were selected to amplify a 728 bp probe spanning a section of the HSV1 UL 15 open reading frame (nucleotides 249–977). Single-stranded transcripts were purified with Promega M13 Wizard kits. The final product was mixed 1:1 with a mixture of 6 M GuSCN, 100 mM EDTA and 200 μg/mL herring sperm DNA and stored at 4° C.
# The capture DNA plasmid (HSV UL13 region in pUC) was linearized by cutting with Xba I, denatured for 15 min at 95° C. and diluted immediately into Reacti-Bind DNA Coating Solution (Pierce, 17250, diluted 1:1 with TE buffer, pH 8) at 1 ng/μL 75 μL/well were added to Corning (#3922 or 9690) white 96-well plates and incubated at room temperature for at least 4 hrs before washing twice with 300 μL/well 0.2×SSC/0.05% Tween-20 (SSC/T buffer). The plates were then incubated overnight at room temperature with 150 μL/well 0.2 N NaOH, 1% IGEPAL and 10 μg/mL herring sperm DNA.
# Twenty-seven (27) μL of cell lysate was combined with 45 μL of hybridization solution (final concentration:3M GuSCN, 50 mM EDTA, 100 μg/ml salmon sperm DNA, 5× Denhardt's solution, 0.25×APE, and 5 ng of the digoxigenin-labeled detection probe). APE is 1.5 M NH4-acetate, 0.15 M NH4H2 phosphate, and 5 mM EDTA adjusted to pH 6.0. Mineral oil (50 μL) was added to prevent evaporation. The hybridization plates were incubated at 95° C. for 10 minutes to denature the DNA, then incubated at 42° C. overnight. The wells were washed 6× with 300 μL/well SSC/T buffer then incubated with 75 μL/well anti-digoxigenin-HRP-conjugated antibody (Boehringer Mannheim 1207733, 1:5000 in TE) for 30 min at room temperature. The wells were washed 6× with 300 μL/well with PBS/0.05% Tween-20 before 75 μL/well SuperSignal LBA substrate (Pierce) was added. The plates were incubated at room temperature for 30 minutes and chemiluminescence was measured in a Wallac Victor reader.
# The following results were obtained for HSV-1.
row,SMILES,IC50
1,"[H]/N=C(/Nc1cc(Cl)cc2c(-c3ccnc(NC4CCCC4)n3)c(-c3ccc(F)cc3)nn12)NC1CCCC1 [Example 26, N-[5-Chloro-3-[2-(cyclopentylamino)pyrimidin-4-yl]-2-(4-fluorophenyl)pyrazolo[1,5-a]pyridin-7-yl]-N′-cyclopentylguanidine hydrochloride]",260 nM

# Same assay, conditions: Human alphaherpesvirus 1; HSV-1 (MOI=0.001) in Vero 76 cells, 40–48 hours incubation, HSV DNA hybridization chemiluminescence readout; read-out: IC50
row,SMILES,IC50
1,"COc1ccc(-c2nn3c(NC4CCCC4)cc(Cl)cc3c2-c2ccnc([S+](C)[O-])n2)cc1 (centres unmarked) [Example 37, N-{5-Chloro-2-(4-methoxyphenyl)-3-[2-(methylsulfinyl)-4-pyrimidinyl]pyrazolo[1,5-a]pyridin-7-yl}-N-cyclopentylamine]",6000 nM
2,"COc1ccc(-c2nn3c(NC4CCCC4)cc(Cl)cc3c2-c2ccnc(NC3CC3)n2)cc1 [Example 38, N-{4-[5-Chloro-7-(cyclopentylamino)-2-(4-methoxyphenyl)pyrazolo[1,5-a]pyridin-3-yl]-2-pyrimidinyl}-N-cyclopropylamine]",340 nM
3,"Fc1ccc(-c2nn3c(NC4CC4)cc(Cl)cc3c2-c2ccnc(NC3CC3)n2)cc1 [Example 27, 5-Chloro-N-cyclopropyl-3-[2-(cyclopropylamino)pyrimidin-4-yl]-2-(4-fluorophenyl)pyrazolo[1,5-a]pyridin-7-amine]",1600 nM
4,"COc1ccc(-c2nn3c(Cl)cc(Cl)cc3c2-c2ccnc(SC)n2)cc1 [Example 35, 5,7-dichloro-2-(4-methoxyphenyl)-3-[2-(methylthio)pyrimidin-4-yl]pyrazolo[1,5-a]pyridine]",> 40000 nM
5,"Cc1cccc(-c2nn3c(NC4CC4)cc(Cl)cc3c2-c2ccnc(NC3CCCC3)n2)c1 [Example 20, 5-Chloro-3-[2-(cyclopentylamino)pyrimidin-4-yl]-N-cyclopropyl-2-(3-methylphenyl)pyrazolo[1,5-a]pyridin-7-amine]",500 nM
6,"Clc1cc(NC2CCCC2)n2nc(-c3ccc(OCC4CC4)cc3)c(-c3ccnc(NC4CC4)n3)c2c1 [Example 40, N-(4-{5-Chloro-7-(cyclopentylamino)-2-[4-(cyclopropyl-methoxy)phenyl]pyrazolo[1,5-a]pyridin-3-yl}-2-pyrimidinyl)-N-cyclopropylamine]",1300 nM
7,"Clc1cccc(-c2nn3c(NC4CCCC4)cc(Cl)cc3c2-c2ccnc(NC3CCCC3)n2)c1 [Example 29, N-{4-[5-chloro-2-(3-chlorophenyl)-7-(cyclopentylamino)pyrazolo[1,5-a]pyridin-3-yl]-2-pyrimidinyl}-N-cyclopentylamine]",350 nM
8,"Fc1ccc(-c2nn3c(N4CCOCC4)cc(Cl)cc3c2-c2ccnc(NC3CCCC3)n2)cc1 [Example 25, 4-[5-Chloro-2-(4-fluorophenyl)-7-(4-morpholinyl)pyrazolo[1,5-a]pyridin-3-yl]-N-cyclopentyl-2-pyrimidinamine]",190 nM
9,"CC(C)Nc1cc(NC(C)C)n2nc(-c3ccc(F)cc3)c(-c3ccnc(NC4CCCC4)n3)c2c1 [Example 16, 3-[2-(Cyclopentylamino)-4-pyrimidinyl]-2-(4-fluorophenyl)-N^5,N^7-diisopropylpyrazolo[1,5-a]pyridine-5,7-diamine]",550 nM
10,"CN1CCN(c2cc(Cl)cc3c(-c4ccnc(NC5CCCC5)n4)c(-c4ccc(F)cc4)nn23)CC1 [Example 23, 4-[5-Chloro-2-(4-fluorophenyl)-7-(4-methyl-1-piperazinyl)pyrazolo[1,5-a]pyridin-3-yl]-N-cyclopentyl-2-pyrimidinamine]",500 nM

# Continued, values first:
row,IC50,SMILES
1,150 nM,"COc1cc(NC2CCCC2)n2nc(-c3ccc(F)cc3)c(-c3ccnc(NC4CCCC4)n3)c2c1 [Example 45, N-Cyclopentyl-3-[2-(cyclopentylamino)-4-pyrimidinyl]-2-(4-fluorophenyl)-5-methoxypyrazolo[1,5-a]pyridin-7-amine]"
2,5300 nM,"Fc1ccc(-c2nn3c(NC4CCCC4)c(C(F)(F)F)ccc3c2-c2ccnc(N3CCCC3)n2)cc1 [Example 1, N-Cyclopentyl-2-(4-fluorophenyl)-3-[2-(1-pyrrolidinyl)-4-pyrimidinyl)-6-(trifluoromethyl)pyrazolo[1,5-a]pyridin-7-amine]"
3,130 nM,"COCCOc1cc(NC2CCCC2)n2nc(-c3ccc(F)cc3)c(-c3ccnc(NC4CCCC4)n3)c2c1 [Example 46, N-Cyclopentyl-3-[2-(cyclopentylamino)-4-pyrimidinyl]-2-(4-fluorophenyl)-5-(2-methoxyethoxy)pyrazolo[1,5-a]pyridin-7-amine]"
4,500 nM,"O=C(O)c1ccc2c(-c3ccnc(NC4CCCC4)n3)c(-c3ccc(F)cc3)nn2c1NC1CCCC1 [Example 4, 7-(Cyclopentylamino)-3-[2-(cyclopentylamino)-4-pyrimidinyl]-2-(4-fluorophenyl)pyrazolo[1,5-a]pyridine-6-carboxylic acid]"
5,800 nM,"Oc1ccc(-c2nn3c(NC4CCCC4)cc(Cl)cc3c2-c2ccnc(NC3CCCC3)n2)cc1 [Example 33, 4-[5-Chloro-3-[2-(cyclopentylamino)-4-pyrimidinyl]-7-(cyclopentylamino)pyrazolo[1,5-a]pyridin-2-yl]phenol]"
6,5000 nM,"O=C(NCCN1CCOCC1)c1ccc2c(-c3ccnc(NC4CCCC4)n3)c(-c3ccc(F)cc3)nn2c1NC1CCCC1 [Example 8, 7-(Cyclopentylamino)-3-[2-(cyclopentylamino)-4-pyrimidinyl]-2-(4-fluorophenyl)-N-[2-(4-morpholinyl)ethyl]pyrazolo[1,5-a]pyridine-6-carboxamide]"
7,120 nM,"Clc1cc(NC2CCCC2)n2nc(-c3ccc(OCC4CC4)cc3)c(-c3ccnc(NC4CCCC4)n3)c2c1 [Example 34, 5-Chloro-3-[2-(cyclopentylamino)-4-pyrimidinyl]-N-cyclopentyl-2-[4-(cyclopropylmethoxy)phenyl]pyrazolo[1,5-a]pyridin-7-amine]"
8,500 nM,"O=C(NCCCn1ccnc1)c1ccc2c(-c3ccnc(NC4CCCC4)n3)c(-c3ccc(F)cc3)nn2c1NC1CCCC1 [Example 9, 7-(Cyclopentylamino)-3-[2-(cyclopentylamino)-4-pyrimidinyl]-2-(4-fluorophenyl)-N-[3-(1H-imidazol-1-yl)propyl]pyrazolo[1,5-a]pyridine-6-carboxamide]"
9,120 nM,"Fc1ccc(-c2nn3c(N4CCCCC4)cc(Cl)cc3c2-c2ccnc(NC3CCCC3)n2)cc1 [Example 24, 4-[5-Chloro-2-(4-fluorophenyl)-7-(1-piperidinyl)pyrazolo[1,5-a]pyridin-3-yl]-N-cyclopentyl-2-pyrimidinamine]"
10,200 nM,"Cc1cccc(-c2nn3c(NC4CCCC4)cc(Cl)cc3c2-c2ccnc(NC3CCCC3)n2)c1 [Example 19, 5-Chloro-N-cyclopentyl-3-[2-(cyclopentylamino)pyrimidin-4-yl]-2-(3-methylphenyl)pyrazolo[1,5-a]pyridin-7-amine]"
11,20000 nM,"Fc1ccc(-c2nn3c(NC4CCCC4)c(Br)cc(Br)c3c2-c2ccnc(NC3CCCC3)n2)cc1 [Example 42, 4,6-Dibromo-N-cyclopentyl-3-[2-(cyclopentylamino)pyrimidin-4-yl]-2-(4-fluorophenyl)pyrazolo[1,5-a]pyridin-7-amine]"
